Test results taken from PMC4300089, “Structure-Guided Design of Selective Epac1 and Epac2 Agonists” (PLoS Biology, 2015).

Legend:
[1] = target: T1, Epac2^fl (Mus musculus, UniProt Q9EQZ6); experiment: Epac activation assay, full length Epac2; format: biochemical; set-up: made in house
T1 sequence (Q9EQZ6 1-993 isoform Q9EQZ6-3): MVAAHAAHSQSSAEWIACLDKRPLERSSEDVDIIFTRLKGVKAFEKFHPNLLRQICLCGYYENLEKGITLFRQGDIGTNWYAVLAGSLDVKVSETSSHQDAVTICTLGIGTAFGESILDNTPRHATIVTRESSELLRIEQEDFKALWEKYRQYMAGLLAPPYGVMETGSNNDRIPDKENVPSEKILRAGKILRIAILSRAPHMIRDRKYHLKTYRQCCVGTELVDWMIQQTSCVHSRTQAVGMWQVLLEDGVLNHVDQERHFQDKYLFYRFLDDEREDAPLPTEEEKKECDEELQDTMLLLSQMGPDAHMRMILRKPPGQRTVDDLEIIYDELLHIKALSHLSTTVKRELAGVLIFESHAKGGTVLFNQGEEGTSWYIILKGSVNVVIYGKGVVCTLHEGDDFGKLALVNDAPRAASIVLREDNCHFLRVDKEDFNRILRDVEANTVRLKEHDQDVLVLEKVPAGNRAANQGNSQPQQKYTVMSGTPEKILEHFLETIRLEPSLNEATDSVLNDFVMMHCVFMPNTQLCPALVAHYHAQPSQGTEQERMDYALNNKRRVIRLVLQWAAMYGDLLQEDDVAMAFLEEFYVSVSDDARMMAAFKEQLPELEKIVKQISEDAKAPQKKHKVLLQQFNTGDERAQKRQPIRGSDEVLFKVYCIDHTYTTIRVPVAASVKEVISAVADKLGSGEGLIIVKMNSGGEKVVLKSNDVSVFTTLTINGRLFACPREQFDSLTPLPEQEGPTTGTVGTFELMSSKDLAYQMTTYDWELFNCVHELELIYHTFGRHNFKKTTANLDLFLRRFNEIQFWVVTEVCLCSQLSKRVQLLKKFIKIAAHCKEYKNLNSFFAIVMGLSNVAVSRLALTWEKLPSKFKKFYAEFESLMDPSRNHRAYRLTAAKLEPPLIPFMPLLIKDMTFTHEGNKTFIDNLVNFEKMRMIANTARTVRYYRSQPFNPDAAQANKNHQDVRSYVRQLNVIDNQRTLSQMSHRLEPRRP
Experimental: Murine Epac2 was used as all previous structural studies were performed with it.
The activity of Epac was determined by a fluorescence assay. […] The fluorescence intensity of Rap1B•mGDP is approximately twice that of free mGDP, and thus, nucleotide exchange can be observed as a decay in fluorescence upon the addition of excess unlabeled GDP.

[2] = target: T2, Epac1 (Homo sapiens, UniProt O95398); experiment: Cellular Epac activity: Rap•GTP levels in U2OS cells stably expressing Epac1; format: cell-based; conditions: for rel. RapGTP: relative to induction with forskolin and IBMX, Fig. 6C
T2 construct: pBabe-Flag-Epac1 (Epac1, homo sapiens, amino acids 1–881); expressed in transfected cells; host or cells: U2OS
T2 sequence (O95398 1-881 isoform O95398-3): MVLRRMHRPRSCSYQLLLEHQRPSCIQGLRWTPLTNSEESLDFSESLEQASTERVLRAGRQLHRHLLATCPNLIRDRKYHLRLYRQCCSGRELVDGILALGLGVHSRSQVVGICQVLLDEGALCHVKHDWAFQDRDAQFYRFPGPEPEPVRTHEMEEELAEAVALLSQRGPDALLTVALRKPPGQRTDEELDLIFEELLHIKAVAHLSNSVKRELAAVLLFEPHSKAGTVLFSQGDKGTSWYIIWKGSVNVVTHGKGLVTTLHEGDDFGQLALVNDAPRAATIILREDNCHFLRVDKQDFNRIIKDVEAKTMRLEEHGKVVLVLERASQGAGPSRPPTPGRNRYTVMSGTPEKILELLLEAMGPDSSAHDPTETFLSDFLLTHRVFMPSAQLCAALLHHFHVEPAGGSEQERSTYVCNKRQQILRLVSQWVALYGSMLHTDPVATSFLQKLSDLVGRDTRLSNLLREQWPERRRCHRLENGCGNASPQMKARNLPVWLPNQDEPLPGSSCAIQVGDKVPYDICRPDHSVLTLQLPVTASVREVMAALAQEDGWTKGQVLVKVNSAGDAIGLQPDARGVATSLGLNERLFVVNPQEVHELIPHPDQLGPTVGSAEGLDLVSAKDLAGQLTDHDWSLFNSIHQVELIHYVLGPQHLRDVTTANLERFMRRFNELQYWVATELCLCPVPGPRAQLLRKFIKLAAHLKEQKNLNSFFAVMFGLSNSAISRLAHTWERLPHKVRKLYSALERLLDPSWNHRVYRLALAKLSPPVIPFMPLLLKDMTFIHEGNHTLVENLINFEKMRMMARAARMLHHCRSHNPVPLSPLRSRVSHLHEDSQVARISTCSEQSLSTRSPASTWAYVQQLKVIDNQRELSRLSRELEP
Experimental: (§1) Rap•GTP levels were determined by precipitating GTP-bound Rap specifically from cell lysates and subsequent western Blotting with an α-Rap antibody (Santa Cruz Biotechnology). To generate stable cell lines, U2OS cells were transfected with pBabe-Flag-Epac1 (Epac1, homo sapiens, amino acids 1–881) or pBabe-Flag-Epac2 (Epac2, mus musculus, amino acids 1–993), selected for Epac expression and maintained under selection with 2 mg/l puromycin. The cells were cultured according to standard protocols. The activity of PKA was determined by western blotting with a monoclonal α-VASP antibody (BD Transduction Laboratories). Blots were developed by enhanced chemiluminescence (ECL) and the use of X-ray films; for quantification films were scanned. The intensities of the Rap•GTP bands and the upper band of VASP (P-VASP) were determined for each condition in ImageJ and normalized to the stimulation with forskolin and IBMX for each blot.

[3] = target: T3, Epac2 (Mus musculus, UniProt Q9EQZ6); experiment: Cellular Epac activity: Rap•GTP levels in U2OS cells stably expressing Epac2; format: cell-based, homo sapiens; conditions: for rel. RapGTP: relative to induction with forskolin and IBMX, Fig. 6C
T3 construct: pBabe-Flag-Epac2 (Epac2, mus musculus, amino acids 1–993); expressed in transfected cells; host or cells: U2OS
T3 sequence (Q9EQZ6 1-993 isoform Q9EQZ6-3): T1 sequence (Q9EQZ6 1-993 isoform Q9EQZ6-3)
Experimental: as §1

Row | Structure (SMILES) | kobs ([1]; 0.2 μM compound) | kobs ([1]; 0.3 μM compound) | kobs ([1]; 0.4 μM compound) | kobs ([1]; 0.5 μM compound) | kobs ([1]; 0.6 μM compound) | kobs ([1]; 0.7 μM compound) | kobs ([1]; 0.8 μM compound) | kobs ([1]; 1 μM compound) | kobs ([1]; 2 μM compound) | kobs ([1]; 3 μM compound) | kobs ([1]; 4 μM compound) | kobs ([1]; 5 μM compound) | kobs ([1]; 6 μM compound) | kobs ([1]; 7 μM compound) | kobs ([1]; 8 μM compound) | kobs ([1]; 10 μM compound) | kobs ([1]; 20 μM compound) | kobs ([1]; 30 μM compound) | kobs ([1]; 40 μM compound) | kobs ([1]; 50 μM compound) | also measured
1 | Nc1ncnc2c1ncn2[C@@H]1O[C@@H]2COP(=O)(O)O[C@H]2[C@H]1O [cAMP, reference compound] | 1.9e-05 s⁻¹ | 2e-05 s⁻¹ | 2.1e-05 s⁻¹ | 2.1e-05 s⁻¹ | 2.5e-05 s⁻¹ | 2.36e-05 s⁻¹ | 2.47e-05 s⁻¹ | 2.84e-05 s⁻¹ | 3.47e-05 s⁻¹ | 4.1e-05 s⁻¹ | 4.71e-05 s⁻¹ | 5.23e-05 s⁻¹ | 5.05e-05 s⁻¹ | 5.49e-05 s⁻¹ | 6.35e-05 s⁻¹ | 7.22e-05 s⁻¹ | 0.000116 s⁻¹ | 0.000142 s⁻¹ | 0.000159 s⁻¹ | 0.000167 s⁻¹ | kobs ([1]; 60 μM compound): 0.000192 s⁻¹; kobs ([1]; 70 μM compound): 0.000198 s⁻¹; kobs ([1]; 80 μM compound): 0.000203 s⁻¹; kobs ([1]; 100 μM compound): 0.000207 s⁻¹; kobs ([1]; 200 μM compound): 0.000219 s⁻¹; kobs ([1]; 400 μM compound): 0.000212 s⁻¹; kobs ([1]; 600 μM compound): 0.000207 s⁻¹; kobs ([1]; 800 μM compound): 0.000224 s⁻¹
2 | Nc1ncnc2c1nc(Sc1ccc(Cl)cc1)n2[C@@H]1O[C@@H]2COP(=O)(O)O[C@H]2[C@H]1O [L-026, 8-pCPT-cAMP] | – | – | – | – | – | – | – | – | – | – | – | – | – | – | – | – | – | – | – | – | rel. RapGTP [2]: 1.1255; rel. RapGTP [3]: 0.7828
3 | Nc1ncnc2c1nc(SCc1ccccc1)n2[C@@H]1O[C@@H]2CO[P@](O)(=S)O[C@H]2[C@H]1O [S-220, Sp-8-BnT-cAMPS] | 0.00016 s⁻¹ | 0.000217 s⁻¹ | 0.000258 s⁻¹ | 0.000295 s⁻¹ | 0.000369 s⁻¹ | 0.000402 s⁻¹ | 0.000428 s⁻¹ | 0.000509 s⁻¹ | 0.000819 s⁻¹ | 0.000975 s⁻¹ | 0.00102 s⁻¹ | 0.0011 s⁻¹ | 0.00114 s⁻¹ | 0.00118 s⁻¹ | 0.00118 s⁻¹ | 0.00125 s⁻¹ | 0.00149 s⁻¹ | 0.00153 s⁻¹ | 0.00152 s⁻¹ | 0.0015 s⁻¹ | activation of Epac1 in cells [2]: only minor effects; rel. RapGTP [2]: 0.6097; activation of Epac2 in cells [3]: efficiently activated; rel. RapGTP [3]: 1.2025; kobs ([1]; 0.001 μM compound): 1.9e-05 s⁻¹; kobs ([1]; 0.03 μM compound): 4.4e-05 s⁻¹; kobs ([1]; 0.04 μM compound): 4.9e-05 s⁻¹; kobs ([1]; 0.05 μM compound): 5.4e-05 s⁻¹; kobs ([1]; 0.06 μM compound): 6e-05 s⁻¹; kobs ([1]; 0.07 μM compound): 6.8e-05 s⁻¹; kobs ([1]; 0.08 μM compound): 6.9e-05 s⁻¹; kobs ([1]; 0.1 μM compound): 9.1e-05 s⁻¹; kobs ([1]; 60 μM compound): 0.00155 s⁻¹; kobs ([1]; 70 μM compound): 0.00155 s⁻¹; kobs ([1]; 80 μM compound): 0.00152 s⁻¹; kobs ([1]; 100 μM compound): 0.0015 s⁻¹; AC50 ([1]; Epac2^fl): 2100 nM; potency relative to cAMP by activation potential (times more potently than cAMP) ([1]; Epac2^fl): 200 times; Rel. kmax ([1]; Epac2^fl, maximal activity relative to cAMP): 6.6
